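Test compounds were applied to cells in 96-well plates for 48 hours at 5 doses. GI50 marks 50% less growth.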 The source made the active and inactive calls. Rule as the data show it: active = GI50 up to about 1.1 µM and inactive = higher. Positions of bridges follow the written chain, without caps; N, C: chain ends. Non-standard residues stand in square brackets, D forms with d. Residues, ends and D or L forms follow the SMILES beside them. *: point of attachment. PhAc = O=C(Cc1ccccc1)*
Legend:
Assay in all cases: NCI-60 cell line screen, 48 h
HOP-62 = test system: HOP-62
HOP-92 = test system: HOP-92
EKVX = test system: EKVX
K562 = test system: K562
MCF7 = test system: MCF7
SK-MEL-28 = test system: SK-MEL-28
NCI-H23 = test system: NCI-H23
RXF 393 = test system: RXF 393
A498 = test system: A498
SF-295 = test system: SF-295
SF-539 = test system: SF-539
UO-31 = test system: UO-31
SF-268 = test system: SF-268
COLO 205 = test system: COLO 205
T47D = test system: T47D
A549 = test system: A549
NCI-H226 = test system: NCI-H226
NCI-H460 = test system: NCI-H460
BT-549 = test system: BT-549

Measured: GI50

CC1=C(C)Cc2c(O)ccc(O)c2C1
inactive: HOP-62 21.5 µM | HOP-92 19.7 µM | EKVX 14.5 µM | K562 18.8 µM | MCF7 19.2 µM | SK-MEL-28 12 µM | NCI-H23 27.9 µM | RXF 393 15.9 µM | A498 83.9 µM | SF-295 47.4 µM | SF-539 20 µM | UO-31 16.9 µM | SF-268 15.5 µM | COLO 205 20.4 µM | T47D 18.5 µM | A549 18.7 µM | NCI-H226 17.4 µM | NCI-H460 43.7 µM

CN1c2ccccc2NC(CC(=O)O)C2CC=CN21 (stereo unspecified)
inactive: HOP-62 > 100 µM | HOP-92 > 100 µM | EKVX > 100 µM | K562 > 100 µM | SK-MEL-28 > 100 µM | NCI-H23 > 100 µM | RXF 393 > 100 µM | A498 > 100 µM | SF-295 > 100 µM | SF-539 > 100 µM | UO-31 > 100 µM | SF-268 > 100 µM | COLO 205 > 100 µM | A549 > 100 µM | NCI-H460 > 100 µM

CC(C)NC(=O)OCc1c(COC(=O)NC(C)C)c(-c2cc[n+](COC(=O)CC(C)(C)C)cc2)n2c1CCC2
inactive: HOP-62 > 100 µM | HOP-92 > 100 µM | EKVX > 100 µM | K562 > 100 µM | MCF7 > 100 µM | NCI-H23 > 100 µM | RXF 393 > 100 µM | A498 > 100 µM | SF-295 > 100 µM | SF-539 > 100 µM | UO-31 > 100 µM | BT-549 > 100 µM | COLO 205 > 100 µM | A549 > 100 µM | NCI-H226 > 100 µM

CSCCCNC(=O)[C@H](CSC)NC(=O)c1csc(CCNC(=O)[C@@H](NSc2ccccc2[N+](=O)[O-])C(C)O)n1 (stereo partly specified)
inactive: HOP-62 > 100 µM | HOP-92 > 100 µM | EKVX > 100 µM | K562 > 100 µM | MCF7 > 100 µM | SK-MEL-28 > 100 µM | NCI-H23 > 100 µM | RXF 393 > 100 µM | A498 > 100 µM | SF-295 > 100 µM | SF-539 > 100 µM | UO-31 > 100 µM | SF-268 > 100 µM | BT-549 > 100 µM | COLO 205 > 100 µM | A549 > 100 µM | NCI-H226 > 100 µM | NCI-H460 > 100 µM

CC1=NNC(=O)C1C1CC(c2c[nH]c3ccccc23)=NNC1=O (stereo unspecified)
inactive: HOP-62 > 100 µM | HOP-92 > 100 µM | EKVX 11.9 µM | K562 > 100 µM | SK-MEL-28 > 100 µM | NCI-H23 > 100 µM | RXF 393 > 100 µM | A498 > 100 µM | SF-295 > 100 µM | SF-539 > 100 µM | UO-31 > 100 µM | SF-268 > 100 µM | BT-549 > 100 µM | COLO 205 > 100 µM | T47D > 100 µM | A549 > 100 µM | NCI-H226 > 100 µM | NCI-H460 > 100 µM

C=CC(Cl)(CBr)CCC(Br)=C(C)C (stereo unspecified)
inactive: HOP-62 > 100 µM | HOP-92 16.9 µM | EKVX 35.4 µM | K562 31.2 µM | MCF7 14.2 µM | SK-MEL-28 20 µM | NCI-H23 25.9 µM | RXF 393 17.5 µM | A498 > 100 µM | SF-295 35.9 µM | SF-539 21.4 µM | UO-31 18.8 µM | SF-268 21 µM | BT-549 21.5 µM | COLO 205 17.9 µM | A549 43.6 µM | NCI-H226 44.8 µM | NCI-H460 18.9 µM

O=c1oc2ccccc2c(O)c1C1c2c(c3ccccc3oc2=O)Oc2c1c(=O)oc1ccccc21
inactive: HOP-62 64.4 µM | HOP-92 35.2 µM | EKVX 45 µM | K562 33.7 µM | SK-MEL-28 30.8 µM | NCI-H23 31.3 µM | A498 49.5 µM | UO-31 19 µM | SF-268 29.4 µM | BT-549 27.5 µM | COLO 205 42.3 µM | T47D 38.4 µM | NCI-H226 22.4 µM | NCI-H460 17.1 µM

O=C(Cc1ccccc1)N[C@@H]1COC(=O)[C@@H]2CCCN2C(=O)[C@@H]2CCCN2C1=O (PhAc-[dS]-Pro-Pro; ester 1-C)
inactive: HOP-62 > 100 µM | HOP-92 > 100 µM | EKVX > 100 µM | MCF7 > 100 µM | SK-MEL-28 > 100 µM | NCI-H23 > 100 µM | RXF 393 > 100 µM | A498 > 100 µM | SF-295 > 100 µM | SF-539 > 100 µM | SF-268 > 100 µM | COLO 205 > 100 µM | T47D > 100 µM | A549 > 100 µM | NCI-H460 > 100 µM
